Assay results reported in ChEMBL document CHEMBL1201862, “PubChem BioAssay data set” (2004).
One block for each compound: values may come before it. Activity calls are given as the source filed them.

Key:
[1] = biological target: T1, High affinity choline transporter 1 (Homo sapiens, UniProt Q9GZV3); test: CHT inhibitors, dose response, cell-based, 10-point CRC, membrane potential dye (AID 588401); type: functional;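 further: membrane potential dye fluorescence of choline-evoked depolarization via CHT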
T1 sequence (Q9GZV3 whole entry): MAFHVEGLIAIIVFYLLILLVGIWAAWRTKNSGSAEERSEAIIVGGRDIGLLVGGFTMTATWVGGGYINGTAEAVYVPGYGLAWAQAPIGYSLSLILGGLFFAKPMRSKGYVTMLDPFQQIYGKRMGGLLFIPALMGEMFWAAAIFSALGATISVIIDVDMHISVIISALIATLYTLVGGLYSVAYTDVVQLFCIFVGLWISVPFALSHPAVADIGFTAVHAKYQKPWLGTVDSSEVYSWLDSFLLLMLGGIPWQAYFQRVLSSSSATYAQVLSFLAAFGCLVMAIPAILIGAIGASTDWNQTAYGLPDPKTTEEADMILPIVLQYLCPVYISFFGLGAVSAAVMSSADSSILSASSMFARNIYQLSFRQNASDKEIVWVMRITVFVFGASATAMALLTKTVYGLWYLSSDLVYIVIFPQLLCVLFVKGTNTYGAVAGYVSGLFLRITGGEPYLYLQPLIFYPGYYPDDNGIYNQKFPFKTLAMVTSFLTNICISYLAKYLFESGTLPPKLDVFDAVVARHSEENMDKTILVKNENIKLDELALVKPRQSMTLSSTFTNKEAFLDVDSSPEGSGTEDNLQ

[2] = biological target: T1, High affinity choline transporter 1; test: CHT inhibitors, dose response, cell-based, 5-point CRC, membrane potential dye (AID 504840); type: functional
[3] = biological target: FAD-linked sulfhydryl oxidase ALR (Homo sapiens, UniProt P55789); test: inhibitors of human ALR sulfhydryl oxidase, dose response, biochemical, H2O2 detection, luminescence, cherry-pick (AID 493248)
[4] = biological target: Large T antigen (Simian virus 40, UniProt P03070); type: functional, Betapolyomavirus macacae;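 further: Confirmatory-stage PubChem screen for compounds that inhibit SV40 T antigen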
[5] = biological target: Photoreceptor-specific nuclear receptor (Homo sapiens, UniProt Q9Y5X4); type: functional, cell-based;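 further: CHO-S cells with Gal4-NCOR and VP16-NR2E3 two-hybrid luciferase reporter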
[6] = biological target: Ras and Rab interactor 1/Tyrosine-protein kinase ABL1 (Homo sapiens, UniProt P00519+Q13671); type: functional;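 further: biochemical TR-FRET dose-response test measuring inhibition of binding between Rin1 and Abl proteins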
[7] = enhancers of respiration in Yfh1-depleted yeast, dose response, Friedreich's ataxia, plus single-dose screen (AID 1465); type: functional;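 further: yeast depleted of Yfh1p frataxin homolog grown on glycerol needing respiration; WST-1 tetrazolium dye reduction as measure of cellular dehydrogenase metabolic activity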
[8] = biological target: T2, Interleukin-8 (Homo sapiens, UniProt P10145); test: Dose Response confirmation of uHTS small molecule hits for cystic fibrosis induced NFkb Inhibitors in a PAF-induced IL8 counterscreen.; type: functional; details: read-out: IC50_Mean
T2 sequence (P10145 whole entry): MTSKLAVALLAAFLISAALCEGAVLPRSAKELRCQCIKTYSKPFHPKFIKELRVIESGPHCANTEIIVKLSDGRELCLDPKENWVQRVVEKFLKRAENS

[9] = biological target: T2, Interleukin-8; test: Dose Response confirmation of uHTS small molecule hits for cystic fibrosis induced NFkb Inhibitors in a TNFa-induced IL8 counterscreen.; type: functional; details: read-out: IC50_Mean
[10] = biological target: T3, DNA repair protein RAD52 homolog (Homo sapiens, UniProt P43351); type: functional, biochemical
T3 sequence (P43351 whole entry): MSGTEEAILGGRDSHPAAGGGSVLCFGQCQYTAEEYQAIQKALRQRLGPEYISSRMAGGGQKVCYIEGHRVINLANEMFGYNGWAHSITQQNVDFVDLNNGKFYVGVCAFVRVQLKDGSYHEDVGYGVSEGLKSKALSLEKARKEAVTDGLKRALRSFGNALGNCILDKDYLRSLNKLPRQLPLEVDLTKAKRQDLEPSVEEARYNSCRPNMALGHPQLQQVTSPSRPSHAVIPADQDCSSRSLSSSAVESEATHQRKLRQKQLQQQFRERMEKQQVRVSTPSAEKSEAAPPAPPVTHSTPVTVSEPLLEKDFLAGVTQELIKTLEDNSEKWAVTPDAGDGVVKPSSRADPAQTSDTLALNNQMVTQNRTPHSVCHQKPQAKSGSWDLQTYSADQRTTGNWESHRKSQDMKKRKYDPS

[11] = biological target: T4, Beta Lactamase (Pseudomonas aeruginosa, UniProt Q932Y6); test: beta-lactamase reporter inhibitor potency, dose response, artefact control for NOD2-RIPK2 interaction inhibitor project, BLA reporter cells, FRET fluorescence (AID 651552); type: functional, cell-based
[12] = Fluorescence-based cell-based high throughput dose response assay for inhibitors of the interaction of nucleotide-binding oligomerization domain containing 2 (NOD2) and the receptor-interacting serine-threonine kinase 2 (RIPK2).; type: functional; details: Homo sapiens
[13] = miR-122 activators in hepatoma reporter cells, dose response, cell-based, Huh7 psiCHECK-miR122, Renilla luciferase, cherry-picked (AID 651956); type: functional;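 further: huh7 hepatoma cells stably carrying a psiCHECK-2 miR-122 sensor plasmid; renilla luciferase signal reporting endogenous miR-122 activity after 48 h compound exposure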
[14] = biological target: T4, Beta Lactamase; test: beta-lactamase reporter inhibitor potency, dose response, artefact control for TLR9-MyD88 binding inhibitor project, BLA reporter cells, FRET fluorescence (AID 588341); type: cell-based;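 further: cell based assay in CHO-K1 cells stably expressing beta-lactamase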
[15] = system: CHO; test: cytotoxicity in TLR9-MyD88 CHO cells, dose response, cytotoxicity control for TLR9-MyD88 binding inhibitor project, cell-based, luminescence (AID 588339); type: functional, hamster; details: Cricetulus griseus;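 further: CHO cells stably coexpressing TLR9 and MyD88 fusions from primary screen; compound exposure lasted 48 hours before viability readout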
[16] = biological target: DNA repair and recombination protein RAD54-like (Homo sapiens, UniProt Q92698); test: inhibitors of human RAD54 branch migration, confirmation, biochemical, fluorescence, cherry-picked samples, dose series (AID 651657); type: functional
[17] = inhibitors of intracellular T. cruzi replication, confirmation, NIH3T3 host cells, beta-gal luminescence (AID 2044); type: functional, cell-based;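 further: intracellular parasites grown in NIH/3T3 mouse fibroblasts as host cells; luminescent beta-galactosidase reporter signal from transgenic T. cruzi replicating inside host cells; inhibitors lower the luminescence signal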
[18] = cytotoxicity toward NIH3T3 fibroblasts, dose response, counter-screen, cell-based, ATP luminescence, mouse fibroblasts (AID 2010); type: functional;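 further: cells exposed to compound for about 90 hours before reading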
[19] = biological target: T5, Protein skinhead-1 (Caenorhabditis elegans, UniProt P34707); type: functional
T5 sequence (P34707 whole entry): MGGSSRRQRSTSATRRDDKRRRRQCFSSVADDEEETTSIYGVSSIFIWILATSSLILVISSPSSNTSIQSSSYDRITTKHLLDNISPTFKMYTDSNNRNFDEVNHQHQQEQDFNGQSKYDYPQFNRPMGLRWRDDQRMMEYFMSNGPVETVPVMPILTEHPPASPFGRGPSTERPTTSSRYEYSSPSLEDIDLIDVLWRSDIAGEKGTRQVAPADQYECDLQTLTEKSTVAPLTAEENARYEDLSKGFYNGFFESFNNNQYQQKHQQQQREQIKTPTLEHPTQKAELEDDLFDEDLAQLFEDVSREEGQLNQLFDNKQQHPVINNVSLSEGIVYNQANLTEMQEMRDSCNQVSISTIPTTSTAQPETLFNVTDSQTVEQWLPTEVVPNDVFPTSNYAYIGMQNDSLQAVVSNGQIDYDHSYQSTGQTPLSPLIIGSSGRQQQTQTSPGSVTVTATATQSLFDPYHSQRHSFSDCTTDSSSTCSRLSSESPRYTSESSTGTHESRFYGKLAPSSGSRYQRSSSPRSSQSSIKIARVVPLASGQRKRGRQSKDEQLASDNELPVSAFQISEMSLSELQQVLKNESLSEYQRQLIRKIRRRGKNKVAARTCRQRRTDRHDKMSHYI

[20] = growth suppression of PTEN-null colon cells, dose response, cell-based, HCT116 PTEN knockout (AID 1047); type: functional;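 further: HCT116 colon tumor cells with PTEN knocked out; cells exposed to compound for 60 hours before readout; potency for loss of cell viability measured by luminescence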
[21] = AlphaScreen signal interference compounds, dose response, artefact control for ARNT-TACC3 interaction inhibitor project, biochemical, luminescence, cherry-pick (AID 651705); type: functional;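 further: AlphaScreen bead proximity signal that flags compounds interfering with the detection technology; potency reflects signal decrease which marks the compound as an assay artifact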
[22] = growth suppression of beta-catenin-knockout colon cells, dose response, cell-based, HCT116, human colon tumor (AID 1045); type: functional;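 further: HCT116 colon tumor cells with beta catenin knocked out; cells exposed to compound for 60 hours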
[23] = biological target: T6, Apoptotic protease-activating factor 1 (Homo sapiens, UniProt O14727); test: SAR analysis of small molecule inhibitors of Apaf-1 in a Fluorescent assay.; type: functional; details: read-out: IC50_Mean
T6 sequence (O14727 whole entry): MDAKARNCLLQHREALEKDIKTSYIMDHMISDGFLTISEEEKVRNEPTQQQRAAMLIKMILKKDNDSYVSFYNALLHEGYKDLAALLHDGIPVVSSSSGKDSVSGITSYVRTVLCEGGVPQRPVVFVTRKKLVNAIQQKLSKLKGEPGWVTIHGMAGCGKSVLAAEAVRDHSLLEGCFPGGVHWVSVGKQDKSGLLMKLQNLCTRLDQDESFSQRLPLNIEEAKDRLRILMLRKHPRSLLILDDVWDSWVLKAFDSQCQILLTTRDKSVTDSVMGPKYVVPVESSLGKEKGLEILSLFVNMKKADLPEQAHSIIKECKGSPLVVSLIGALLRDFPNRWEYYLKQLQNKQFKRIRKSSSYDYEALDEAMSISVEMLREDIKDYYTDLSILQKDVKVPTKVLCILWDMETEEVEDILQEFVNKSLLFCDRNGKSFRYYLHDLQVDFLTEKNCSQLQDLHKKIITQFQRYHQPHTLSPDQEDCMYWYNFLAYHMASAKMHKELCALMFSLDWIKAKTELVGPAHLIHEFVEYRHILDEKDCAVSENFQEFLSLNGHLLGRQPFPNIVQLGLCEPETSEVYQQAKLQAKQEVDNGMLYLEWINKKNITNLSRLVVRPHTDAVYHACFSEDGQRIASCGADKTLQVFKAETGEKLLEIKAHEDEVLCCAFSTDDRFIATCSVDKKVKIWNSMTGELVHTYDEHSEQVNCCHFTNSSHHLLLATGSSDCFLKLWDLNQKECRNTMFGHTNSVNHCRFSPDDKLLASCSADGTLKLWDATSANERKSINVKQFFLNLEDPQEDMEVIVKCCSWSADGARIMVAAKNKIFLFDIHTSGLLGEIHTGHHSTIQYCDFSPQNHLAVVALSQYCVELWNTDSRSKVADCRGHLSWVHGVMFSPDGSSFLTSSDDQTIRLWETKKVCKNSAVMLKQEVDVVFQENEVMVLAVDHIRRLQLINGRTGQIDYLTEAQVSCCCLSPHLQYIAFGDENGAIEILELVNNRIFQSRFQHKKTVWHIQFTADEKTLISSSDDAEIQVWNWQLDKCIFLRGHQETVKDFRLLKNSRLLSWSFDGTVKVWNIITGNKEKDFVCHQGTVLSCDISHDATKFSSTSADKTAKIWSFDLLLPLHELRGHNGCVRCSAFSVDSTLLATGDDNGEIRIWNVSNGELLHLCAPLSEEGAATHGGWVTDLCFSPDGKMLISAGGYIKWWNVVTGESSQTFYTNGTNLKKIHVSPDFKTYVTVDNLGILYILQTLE

[24] = biological target: Hepatocyte nuclear factor 4-alpha (Homo sapiens, UniProt P41235); type: functional, cell-based;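 further: biochemical luminescence-based dose-response counterscreen measuring inhibition of HNF4 dimerization, run alongside a screen for blockers of ABHD5–perilipin-5 interaction; split luciferase complementation of HNF4 fusion proteins in cell lysate measuring dimerization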
[25] = biological target: Heat shock protein HSP 90-alpha (Homo sapiens, UniProt P07900); type: functional, organism-based
[26] = system: H9c2; test: cells; type: functional, cell-based; details: Rattus norvegicus, H9c2, Myocardium;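 further: confirmatory concentration-response retest of ultra-high-throughput screening hits for modulation of myocardial damage; cell death induced by hydrogen peroxide oxidative stress; compound pretreatment for 60 min then peroxide exposure for 2 h; potency is for protecting the cells against peroxide damage rather than for killing them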
[27] = biological target: Melanocortin receptor 4 (Homo sapiens, UniProt P32245); type: functional, cell-based;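 further: Cell-based assay with luminescence read-out, confirmatory dose-response testing for agonist activity of biased ligands at MC4R; human U2OS cells with tagged receptor and beta-arrestin; potency of agonists that increase receptor coupling to beta-arrestin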
Sequence of Melanocortin receptor 4 (P32245 whole entry): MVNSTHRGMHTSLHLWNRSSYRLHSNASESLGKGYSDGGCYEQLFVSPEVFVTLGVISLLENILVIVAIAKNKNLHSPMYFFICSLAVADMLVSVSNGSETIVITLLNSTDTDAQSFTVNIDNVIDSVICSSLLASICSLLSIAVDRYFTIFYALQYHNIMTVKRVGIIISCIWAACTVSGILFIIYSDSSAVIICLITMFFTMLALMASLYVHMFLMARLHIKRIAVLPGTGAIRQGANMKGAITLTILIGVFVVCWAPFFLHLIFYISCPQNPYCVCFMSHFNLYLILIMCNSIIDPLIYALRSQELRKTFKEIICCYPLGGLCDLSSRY

Sequence of FAD-linked sulfhydryl oxidase ALR (P55789 whole entry): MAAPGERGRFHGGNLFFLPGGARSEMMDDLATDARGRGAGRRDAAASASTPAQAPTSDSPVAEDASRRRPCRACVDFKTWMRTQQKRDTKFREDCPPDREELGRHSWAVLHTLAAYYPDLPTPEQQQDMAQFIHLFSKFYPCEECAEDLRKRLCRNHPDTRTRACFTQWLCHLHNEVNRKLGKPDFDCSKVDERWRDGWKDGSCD
T4 sequence (Q932Y6 whole entry, the tested form may be a part): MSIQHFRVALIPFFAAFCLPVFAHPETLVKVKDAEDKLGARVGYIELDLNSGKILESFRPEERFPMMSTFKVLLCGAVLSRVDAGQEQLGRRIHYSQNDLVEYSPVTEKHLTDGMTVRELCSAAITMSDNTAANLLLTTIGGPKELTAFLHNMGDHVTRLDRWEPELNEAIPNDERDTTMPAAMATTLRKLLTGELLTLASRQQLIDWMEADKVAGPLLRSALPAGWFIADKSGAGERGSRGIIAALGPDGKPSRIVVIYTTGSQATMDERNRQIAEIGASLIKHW
Sequence of DNA repair and recombination protein RAD54-like (Q92698 whole entry): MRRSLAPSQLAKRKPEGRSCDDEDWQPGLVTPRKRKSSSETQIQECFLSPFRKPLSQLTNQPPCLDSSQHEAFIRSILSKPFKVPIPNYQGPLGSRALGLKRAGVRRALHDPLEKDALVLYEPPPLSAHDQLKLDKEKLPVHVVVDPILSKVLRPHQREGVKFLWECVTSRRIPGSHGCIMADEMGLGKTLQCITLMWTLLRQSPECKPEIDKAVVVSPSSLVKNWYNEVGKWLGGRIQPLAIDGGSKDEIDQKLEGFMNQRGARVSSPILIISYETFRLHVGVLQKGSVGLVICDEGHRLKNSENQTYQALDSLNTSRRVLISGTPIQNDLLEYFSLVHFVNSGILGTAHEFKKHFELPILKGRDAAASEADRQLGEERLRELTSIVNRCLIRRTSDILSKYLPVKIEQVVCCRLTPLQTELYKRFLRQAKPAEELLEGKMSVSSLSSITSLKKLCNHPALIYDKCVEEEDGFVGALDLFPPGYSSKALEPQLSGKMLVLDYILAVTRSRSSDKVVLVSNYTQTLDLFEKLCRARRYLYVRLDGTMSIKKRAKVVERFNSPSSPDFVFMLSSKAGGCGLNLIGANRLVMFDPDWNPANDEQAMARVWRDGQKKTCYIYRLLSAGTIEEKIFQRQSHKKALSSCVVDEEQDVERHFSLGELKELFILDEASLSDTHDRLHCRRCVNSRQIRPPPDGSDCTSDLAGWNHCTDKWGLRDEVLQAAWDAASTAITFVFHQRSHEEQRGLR
Sequence of Hepatocyte nuclear factor 4-alpha (P41235 whole entry, the tested form may be a part): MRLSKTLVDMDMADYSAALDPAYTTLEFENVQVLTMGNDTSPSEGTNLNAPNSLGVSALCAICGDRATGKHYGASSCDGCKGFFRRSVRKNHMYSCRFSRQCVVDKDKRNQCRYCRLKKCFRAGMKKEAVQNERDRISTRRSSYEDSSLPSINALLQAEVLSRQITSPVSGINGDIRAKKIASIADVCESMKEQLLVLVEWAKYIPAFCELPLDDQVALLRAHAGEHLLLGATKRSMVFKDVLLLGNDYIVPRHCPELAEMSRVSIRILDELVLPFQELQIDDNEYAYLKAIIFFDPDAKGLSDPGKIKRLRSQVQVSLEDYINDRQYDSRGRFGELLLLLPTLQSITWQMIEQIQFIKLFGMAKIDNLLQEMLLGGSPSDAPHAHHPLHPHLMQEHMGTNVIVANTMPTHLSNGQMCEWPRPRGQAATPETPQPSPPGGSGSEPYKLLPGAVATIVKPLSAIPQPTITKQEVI
Sequence of Large T antigen (P03070 whole entry, the tested form may be a part): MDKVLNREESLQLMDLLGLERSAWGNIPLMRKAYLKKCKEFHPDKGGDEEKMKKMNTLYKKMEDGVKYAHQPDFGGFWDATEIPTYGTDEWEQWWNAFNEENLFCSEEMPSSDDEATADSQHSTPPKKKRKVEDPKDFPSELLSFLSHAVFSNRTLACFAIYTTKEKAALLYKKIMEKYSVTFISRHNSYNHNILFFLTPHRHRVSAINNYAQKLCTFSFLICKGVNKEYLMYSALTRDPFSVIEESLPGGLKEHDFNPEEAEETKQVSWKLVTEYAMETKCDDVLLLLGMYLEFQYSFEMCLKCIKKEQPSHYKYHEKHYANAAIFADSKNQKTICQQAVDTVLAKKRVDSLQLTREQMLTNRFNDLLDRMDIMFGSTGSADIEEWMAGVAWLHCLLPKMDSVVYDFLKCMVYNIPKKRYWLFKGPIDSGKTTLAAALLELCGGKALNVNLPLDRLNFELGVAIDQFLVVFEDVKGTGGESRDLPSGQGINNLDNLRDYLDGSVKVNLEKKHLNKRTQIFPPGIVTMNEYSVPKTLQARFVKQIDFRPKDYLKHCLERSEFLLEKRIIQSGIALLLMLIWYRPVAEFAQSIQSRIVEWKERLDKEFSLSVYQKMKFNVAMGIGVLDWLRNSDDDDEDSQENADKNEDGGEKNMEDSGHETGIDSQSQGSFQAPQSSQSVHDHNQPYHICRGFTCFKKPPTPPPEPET
Sequence of Photoreceptor-specific nuclear receptor (Q9Y5X4 whole entry, the tested form may be a part): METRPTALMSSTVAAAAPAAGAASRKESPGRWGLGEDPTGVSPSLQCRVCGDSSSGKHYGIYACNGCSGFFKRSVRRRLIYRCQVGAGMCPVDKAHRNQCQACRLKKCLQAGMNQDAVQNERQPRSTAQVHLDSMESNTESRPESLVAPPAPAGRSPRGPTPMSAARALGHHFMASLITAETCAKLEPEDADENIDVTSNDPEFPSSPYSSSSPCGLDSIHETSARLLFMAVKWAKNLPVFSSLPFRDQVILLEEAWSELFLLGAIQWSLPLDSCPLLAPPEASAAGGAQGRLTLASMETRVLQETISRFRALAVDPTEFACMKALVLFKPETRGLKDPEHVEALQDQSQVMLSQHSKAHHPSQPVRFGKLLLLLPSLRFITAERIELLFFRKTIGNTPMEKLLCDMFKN

Compound: C[N+]1(C)CCOC(O)(c2ccc(-c3ccc(C4(O)C[N+](C)(C)CCO4)cc3)cc2)C1 (stereo not given)
- IC50 [1]: 0.127 µM (active)
- AC50 [10]: 7.78 µM (active)
- IC50 [2]: 0.296 µM (active)

Compound: CCCCCN1C(=O)c2cc(OC)ccc2[C@@]2(C(=O)OCC)Cc3cc(Cl)ccc3[C@@H]12
- IC50 [11]: 18.8 µM (inactive)
- IC50 [12]: 2.04 µM (active)

Compound: C[C@@H]1CN([C@H](C)CO)S(=O)(=O)c2ccc(C3=CCCC3)cc2O[C@@H]1CN(C)C(=O)c1cnccn1
- AC50 [13]: 13.5 µM (active)

Compound: CC(=O)c1sc2nc(-c3ccc(C)cc3)c3c(c2c1N)CCCC3
- IC50 [14]: 3.73 µM (active)
- IC50 [15]: 36.7 µM (inactive)

Compound: Oc1cccc(Nc2c3ccccc3nc3ccccc23)c1
- AC50 [10]: 3.09 µM (active)
- AC50 [3]: 2.66 µM (active)
- AC50 [16]: 4.49 µM (active)
- EC50 [17]: 0.672 µM (active)
- EC50 [18]: 21.8 µM (active)
- IC50 [19]: > 100 µM (inactive)

Compound: O=C(COc1nsnc1N1CCOCC1)N/N=C/c1ccccc1O
- EC50 [20]: 28.5 µM (active)
- AC50 [21]: 107 µM (active)
- EC50 [22]: 23.7 µM (active)

Compound: Cc1ccc(-n2ncc(C(=O)Nc3cc(Cl)ccc3C)c2C2CCNCC2)cc1C
- AC50 [13]: 51.5 µM (active)

Compound: CCOc1ccc(NCc2cc3c(C(C)(C)C)nn(-c4ccccc4)c3nc2O)cc1
- AC50 [25]: 8.84 µM (active)
- EC50 [20]: 9.36 µM (active)
- IC50 [8]: 0.628 µM (active)
- IC50 [9]: > 79 µM (inactive)
- EC50 [22]: 13.5 µM (active)
- IC50 [26]: 24.2 µM (active)

Second part, led by results:

- IC50 [1]: 6.48 µM (active)
- IC50 [2]: 8.58 µM (active)
Compound: Cc1ccc(C(C)NC(=O)C2CCCC2)cc1C (stereo not given)

- AC50 [3]: 10.3 µM (active)
- IC50 [4]: 60.4 µM (active)
- IC50 [5]: 5.56 µM (active)
Compound: Cc1ccc(S(=O)(=O)N2[C@@H](c3ccc(Cl)cc3)C(C(=O)O)=CC[C@H]2c2ccc(C(C)C)cc2)cc1

- IC50 [6]: > 73.5 µM (inactive)
Compound: Oc1nccc(N/N=C/c2ccccc2)n1

- IC50 [8]: 3.4 µM (active)
- IC50 [9]: > 79 µM (inactive)
Compound: Sc1nnc(-c2ccncc2)n1/N=C/C(Cl)=C\c1ccccc1
- EC50 [7]: > 100 µM (active)

- AC50 [10]: 4.91 µM (active)
- AC50 [16]: 12.9 µM (active)
Compound: COc1ncccc1-c1cc2nc(NCCCN(C)C)n(C)c(=O)c2s1

- IC50 [23]: 14.7 µM (active)
Compound: CCN(CC)CCOC(=O)c1ccc(N/C=C(\C#N)c2nc(-c3ccc(Br)cc3)cs2)cc1

- IC50 [24]: 5.6 µM (active)
Compound: O=C(/C=C/c1ccc2c(c1)OCCCO2)c1ccccc1O

- IC50 [24]: 6.11 µM (active)
- EC50 [27]: > 89.2 µM (inactive)
Compound: Cc1ccc(O)c(C(=O)/C=C/c2ccc3c(c2)OCCCO3)c1

- IC50 [23]: 13.7 µM (active)
Compound: CCN(CC)CCOC(=O)c1ccc(N/C=C(\C#N)c2nc(-c3cccs3)cs2)cc1
